Laboratory results reported in PubChem BioAssay AID1963446 (Molecular Pharmacology Branch, DTP, NCI, 2024).

Test system: 993429-296-R-J1-PDC complex spheroid growth, percent test/control
Assay: Anticancer human tumor 993429-296-R-J1-PDC patient-derived uterine sarcoma cell line growth inhibition [Asc]
Conditions: for IC50: curve of first compound; for viability, T/C: stronger effect = lower value; active = viability on the fitted dose curve at most 10% of control; inactive = the rest
Summary of the method: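 Spheroid model: tumor line + HUVEC + hMSC. Single agents and combinations; top conc. at/near clinical Cmax (10 microM if undetermined), half-log dilutions. DMSO stocks at 800-fold test concentration.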

[1] = second compound 0.1 µM, first compound 0.0316 µM
[2] = second compound 0.1 µM, first compound 0.1 µM
[3] = second compound 0.1 µM, first compound 0.316 µM
[4] = second compound 0.1 µM, first compound 1 µM
[5] = second compound 0.1 µM, first compound 3.16 µM
[6] = second compound 0.1 µM, first compound 10 µM
[7] = second compound 0.316 µM, first compound 0.0316 µM
[8] = second compound 0.316 µM, first compound 0.1 µM
[9] = second compound 0.316 µM, first compound 0.316 µM
[10] = second compound 0.316 µM, first compound 1 µM
[11] = second compound 0.316 µM, first compound 3.16 µM
[12] = second compound 0.316 µM, first compound 10 µM
[13] = second compound 1 µM, first compound 0.0316 µM
[14] = second compound 1 µM, first compound 0.1 µM
[15] = second compound 1 µM, first compound 0.316 µM
[16] = second compound 1 µM, first compound 1 µM
[17] = second compound 1 µM, first compound 3.16 µM
[18] = second compound 1 µM, first compound 10 µM
[19] = second compound 3.16 µM, first compound 0.0316 µM
[20] = second compound 3.16 µM, first compound 0.1 µM
[21] = second compound 3.16 µM, first compound 0.316 µM
[22] = second compound 3.16 µM, first compound 1 µM
[23] = second compound 3.16 µM, first compound 3.16 µM
[24] = second compound 3.16 µM, first compound 10 µM
[25] = second compound 10 µM, first compound 0.0316 µM
[26] = second compound 10 µM, first compound 0.1 µM
[27] = second compound 10 µM, first compound 0.316 µM
[28] = second compound 10 µM, first compound 1 µM
[29] = second compound 10 µM, first compound 3.16 µM
[30] = second compound 10 µM, first compound 10 µM
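Note: spheroids exposed to compounds for seven days.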

C=C(F)C(=O)N1CCN(c2nc(OCC3CCCN3C)nc3c2CCN(c2cccc4cccc(Cl)c24)C3)CC1CC#N (stereo not given) + Cc1c(S(C)(=O)=O)c(-c2cc(F)cc(N3CCN(c4ccc(NS(=O)(=O)c5ccc(NC(CCN6CCC(C(=O)OCCCP(=O)(O)O)CC6)CSc6ccccc6)c(S(=O)(=O)C(F)(F)F)c5)cc4)CC3)c2)c(-c2ccc(Cl)cc2)n1C(C)C
494 nM: IC50 (second compound 0.1 µM)
553 nM: IC50 (second compound 10 µM)
321 nM: IC50 (second compound 1 µM)
active: viability, T/C [5] 0.55% | viability, T/C [6] 0.23% | viability, T/C [10] 7.35% | viability, T/C [11] 0.21% | viability, T/C [12] 0.19% | viability, T/C [16] 5.26% | viability, T/C [17] 0.3% | viability, T/C [18] 0.14% | viability, T/C [22] 7.98% | viability, T/C [23] 0.08% | viability, T/C [24] 0.17% | viability, T/C [29] 0.43% | viability, T/C [30] 0.3%
inactive: viability, T/C [1] 57.1% | viability, T/C [2] 85% | viability, T/C [3] 69.2% | viability, T/C [4] 17.5% | viability, T/C [7] 71.8% | viability, T/C [8] 77.1% | viability, T/C [9] 70.6% | viability, T/C [13] 49.5% | viability, T/C [14] 60.8% | viability, T/C [15] 50.5% | viability, T/C [19] 46.9% | viability, T/C [20] 49.6% | viability, T/C [21] 35.9% | viability, T/C [25] 78.9% | viability, T/C [26] 108% | viability, T/C [27] 87.3% | viability, T/C [28] 10.4%
460 nM: IC50 (second compound 0.316 µM)
< 31.6 nM: IC50 (second compound 3.16 µM)

C=CC(=O)N1CCN(c2nc(=O)n(-c3c(C)ccnc3C(C)C)c3nc(-c4c(O)cccc4F)c(F)cc23)C(C)C1 (stereo not given) + Cc1c(S(C)(=O)=O)c(-c2cc(F)cc(N3CCN(c4ccc(NS(=O)(=O)c5ccc(NC(CCN6CCC(C(=O)OCCCP(=O)(O)O)CC6)CSc6ccccc6)c(S(=O)(=O)C(F)(F)F)c5)cc4)CC3)c2)c(-c2ccc(Cl)cc2)n1C(C)C
> 10000 nM: IC50 (second compound 0.1 µM)
inactive: viability, T/C [1] 83.5% | viability, T/C [2] 81.1% | viability, T/C [3] 91.9% | viability, T/C [4] 75.1% | viability, T/C [5] 76.5% | viability, T/C [6] 54.6% | viability, T/C [7] 79% | viability, T/C [8] 80.6% | viability, T/C [9] 69.2% | viability, T/C [10] 75% | viability, T/C [11] 62.3% | viability, T/C [12] 30.5% | viability, T/C [13] 62.9% | viability, T/C [14] 53.5% | viability, T/C [15] 76.8% | viability, T/C [16] 62.1% | viability, T/C [17] 47.3% | viability, T/C [18] 41.8% | viability, T/C [19] 51.1% | viability, T/C [20] 59.9% | viability, T/C [21] 54.4% | viability, T/C [22] 43.8% | viability, T/C [23] 34.9% | viability, T/C [24] 45.9% | viability, T/C [25] 106% | viability, T/C [26] 81% | viability, T/C [27] 86.6% | viability, T/C [28] 86.1% | viability, T/C [29] 64.7% | viability, T/C [30] 34.9%
5690 nM: IC50 (second compound 10 µM)
4920 nM: IC50 (second compound 0.316 µM)
4340 nM: IC50 (second compound 1 µM)
524 nM: IC50 (second compound 3.16 µM)

CCN1C(C(=O)NC23CCC(C(=O)O)(CC2)CC3)C(c2cccc(Cl)c2F)C2(C(=O)Nc3cc(Cl)ccc32)C12CCCCC2 (stereo not given) + Cc1c(S(C)(=O)=O)c(-c2cc(F)cc(N3CCN(c4ccc(NS(=O)(=O)c5ccc(NC(CCN6CCC(C(=O)OCCCP(=O)(O)O)CC6)CSc6ccccc6)c(S(=O)(=O)C(F)(F)F)c5)cc4)CC3)c2)c(-c2ccc(Cl)cc2)n1C(C)C
> 3000 nM: IC50 (second compound 0.1 µM) | IC50 (second compound 10 µM)
951 nM: IC50 (second compound 1 µM)
< 9.49 nM: IC50 (second compound 3.16 µM)
1270 nM: IC50 (second compound 0.316 µM)
inactive: viability, T/C (second compound 0.1 µM, first compound 0.00949 µM) 88.1% | viability, T/C (second compound 0.1 µM, first compound 0.03 µM) 76.6% | viability, T/C (second compound 0.1 µM, first compound 0.0949 µM) 94.8% | viability, T/C (second compound 0.1 µM, first compound 0.3 µM) 66.4% | viability, T/C (second compound 0.1 µM, first compound 0.949 µM) 62.8% | viability, T/C (second compound 0.1 µM, first compound 3 µM) 58.5% | viability, T/C (second compound 0.316 µM, first compound 0.00949 µM) 63.1% | viability, T/C (second compound 0.316 µM, first compound 0.03 µM) 68.6% | viability, T/C (second compound 0.316 µM, first compound 0.0949 µM) 68.4% | viability, T/C (second compound 0.316 µM, first compound 0.3 µM) 55.5% | viability, T/C (second compound 0.316 µM, first compound 0.949 µM) 54.8% | viability, T/C (second compound 0.316 µM, first compound 3 µM) 39.9% | viability, T/C (second compound 1 µM, first compound 0.00949 µM) 57.6% | viability, T/C (second compound 1 µM, first compound 0.03 µM) 50.8% | viability, T/C (second compound 1 µM, first compound 0.0949 µM) 50.7% | viability, T/C (second compound 1 µM, first compound 0.3 µM) 61.4% | viability, T/C (second compound 1 µM, first compound 0.949 µM) 48% | viability, T/C (second compound 1 µM, first compound 3 µM) 28.4% | viability, T/C (second compound 3.16 µM, first compound 0.00949 µM) 47.1% | viability, T/C (second compound 3.16 µM, first compound 0.03 µM) 51.9% | viability, T/C (second compound 3.16 µM, first compound 0.0949 µM) 43.1% | viability, T/C (second compound 3.16 µM, first compound 0.3 µM) 44.4% | viability, T/C (second compound 3.16 µM, first compound 0.949 µM) 30.8% | viability, T/C (second compound 3.16 µM, first compound 3 µM) 22.3% | viability, T/C (second compound 10 µM, first compound 0.00949 µM) 81.3% | viability, T/C (second compound 10 µM, first compound 0.03 µM) 91.9% | viability, T/C (second compound 10 µM, first compound 0.0949 µM) 62.4% | viability, T/C (second compound 10 µM, first compound 0.3 µM) 67.7% | viability, T/C (second compound 10 µM, first compound 0.949 µM) 78.2% | viability, T/C (second compound 10 µM, first compound 3 µM) 51.1%
